Measurements from patent publication US8329721B2, “Hydroxy and alkoxy substituted 1H-imidazonaphthyridines and methods” (3M Innovative Properties Company, priority 2006, dated 2012).

melting point [°C]	Compound
> 250	Nc1nc2cccnc2c2c1nc(O)n2Cc1ccccc1 [Example 2, 4-Amino-1-benzyl-1H-imidazo[4,5-c][1,5]naphthyridin-2-ol]
197 to 200	CCOc1nc2c(N)nc3cccnc3c2n1CC1CCOCC1 [Example 3, 2-Ethoxy-1-(tetrahydro-2H-pyran-4-ylmethyl)-1H-imidazo[4,5-c][1,5]naphthyridin-4-amine]
250 to 260	Nc1nc2cccnc2c2c1nc(O)n2CC1CCOCC1 [Example 4, 4-Amino-1-(tetrahydro-2H-pyran-4-ylmethyl)-1H-imidazo[4,5-c][1,5]naphthyridin-2-ol]
187 to 190	CCOc1nc2c(N)nc3cccnc3c2n1[C@@H](C)c1ccccc1 [Example 5, 2-Ethoxy-1-[(1S)-1-phenylethyl]-1H-imidazo[4,5-c][1,5]naphthyridin-4-amine]
241 to 243	C[C@@H](c1ccccc1)n1c(O)nc2c(N)nc3cccnc3c21 [Example 6, 4-amino-1-[(1S)-1-phenylethyl]-1H-imidazo[4,5-c][1,5]naphthyridin-2-ol]
